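A five-concentration, 48-hour dose response in 96-well plates underlies each endpoint, interpolated linearly between surrounding concentrations. The concentration for 50% growth inhibition is given as GI50.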 The source made the active and inactive calls. Cut-off read from the data, not from the text of the source: active = GI50 up to about 1.1 µM and inactive = higher.
Key:
Test in all cases: NCI anticancer screen, dose series, 48 h
SNB-75 = tested on: SNB-75
DMS-114 = tested on: DMS-114
HL-60 = tested on: HL-60
SK-MEL-5 = tested on: SK-MEL-5
KM-20L2 = tested on: KM-20L2
OVCAR-4 = tested on: OVCAR-4
RPMI-8226 = tested on: RPMI-8226
OVCAR-3 = tested on: OVCAR-3
COLO 205 = tested on: COLO 205
HCC 2998 = tested on: HCC 2998
NCI-H460 = tested on: NCI-H460
HT-29 = tested on: HT-29
UACC-62 = tested on: UACC-62
SR = tested on: SR
UO-31 = tested on: UO-31
SK-OV-3 = tested on: SK-OV-3
NCI-H23 = tested on: NCI-H23
K562 = tested on: K562
RXF 393 = tested on: RXF 393
TK-10 = tested on: TK-10
SK-MEL-2 = tested on: SK-MEL-2
SK-MEL-28 = tested on: SK-MEL-28
EKVX = tested on: EKVX
OVCAR-5 = tested on: OVCAR-5
HCT-116 = tested on: HCT-116
ACHN = tested on: ACHN
HOP-18 = tested on: HOP-18
HOP-62 = tested on: HOP-62
DLD-1 = tested on: DLD-1
A498 = tested on: A498
XF498 = tested on: XF498
CCRF-CEM = tested on: CCRF-CEM
A549 = tested on: A549
CAKI-1 = tested on: CAKI-1
SW-620 = tested on: SW-620
LOX IMVI = tested on: LOX IMVI
DMS-273 = tested on: DMS-273
SN12C = tested on: SN12C
SNB-78 = tested on: SNB-78
HCT-15 = tested on: HCT-15
KM12 = tested on: KM12
OVCAR-8 = tested on: OVCAR-8
M19-MEL = tested on: M19-MEL
NCI-H226 = tested on: NCI-H226
IGROV-1 = tested on: IGROV-1
MOLT-4 = tested on: MOLT-4
Malme-3M = tested on: Malme-3M
SNB-19 = tested on: SNB-19
LXFL 529 = tested on: LXFL 529
SF-268 = tested on: SF-268
NCI-H522 = tested on: NCI-H522
M14 = tested on: M14
786-0 = tested on: 786-0
UACC-257 = tested on: UACC-257
SF-295 = tested on: SF-295
HOP-92 = tested on: HOP-92
SF-539 = tested on: SF-539
U-251 = tested on: U-251
RXF 631 = tested on: RXF 631

For `COc1cc2c(oc(=O)c3cc4cc([Si](C)(C)C)oc4c(OC)c32)c2cccc(O)c12`, the GI50 (SNB-75) was > 100 µM (inactive), the GI50 (DMS-114) was > 100 µM (inactive) and the GI50 (HL-60) was > 100 µM (inactive). The GI50 (SK-MEL-5) was > 100 µM (inactive), the GI50 (KM-20L2) was > 100 µM (inactive) and the GI50 (OVCAR-4) was > 100 µM (inactive). The GI50 (RPMI-8226) was > 100 µM (inactive), the GI50 (OVCAR-3) was > 100 µM (inactive) and the GI50 (COLO 205) was > 100 µM (inactive). For the same molecule, the GI50 (HCC 2998) was > 100 µM (inactive), the GI50 (NCI-H460) was > 100 µM (inactive) and the GI50 (HT-29) was > 100 µM (inactive). For the same molecule, the GI50 (UACC-62) was > 100 µM (inactive), the GI50 (SR) was > 100 µM (inactive) and the GI50 (UO-31) was > 100 µM (inactive). The GI50 (SK-OV-3) was > 100 µM (inactive), the GI50 (NCI-H23) was > 100 µM (inactive) and the GI50 (K562) was > 100 µM (inactive). For the same molecule, the GI50 (RXF 393) was > 100 µM (inactive), the GI50 (TK-10) was > 100 µM (inactive) and the GI50 (SK-MEL-2) was > 100 µM (inactive). The GI50 (SK-MEL-28) was > 100 µM (inactive), the GI50 (EKVX) was > 100 µM (inactive) and the GI50 (OVCAR-5) was > 100 µM (inactive). For the same molecule, the GI50 (HCT-116) was > 100 µM (inactive), the GI50 (ACHN) was > 100 µM (inactive) and the GI50 (HOP-18) was > 100 µM (inactive). The GI50 (HOP-62) was > 100 µM (inactive), the GI50 (DLD-1) was > 100 µM (inactive) and the GI50 (A498) was 78.9 µM (inactive). For the same molecule, the GI50 (XF498) was > 100 µM (inactive), the GI50 (CCRF-CEM) was > 100 µM (inactive) and the GI50 (A549) was > 100 µM (inactive). The GI50 (CAKI-1) was > 100 µM (inactive), the GI50 (SW-620) was > 100 µM (inactive) and the GI50 (LOX IMVI) was > 100 µM (inactive). The GI50 (DMS-273) was > 100 µM (inactive), the GI50 (SN12C) was > 100 µM (inactive) and the GI50 (SNB-78) was > 100 µM (inactive). The GI50 (HCT-15) was > 100 µM, the GI50 (KM12) was > 100 µM (inactive) and the GI50 (OVCAR-8) was > 100 µM (inactive). For the same molecule, the GI50 (M19-MEL) was > 100 µM (inactive), the GI50 (NCI-H226) was > 100 µM (inactive) and the GI50 (IGROV-1) was > 100 µM (inactive). The GI50 (MOLT-4) was > 100 µM (inactive), the GI50 (Malme-3M) was > 100 µM (inactive) and the GI50 (SNB-19) was > 100 µM (inactive). The GI50 (LXFL 529) was > 100 µM (inactive), the GI50 (SF-268) was > 100 µM (inactive) and the GI50 (NCI-H522) was > 100 µM (inactive). The GI50 (M14) was > 100 µM (inactive), the GI50 (786-0) was > 100 µM (inactive) and the GI50 (UACC-257) was > 100 µM (inactive). For the same molecule, the GI50 (SF-295) was > 100 µM (inactive), the GI50 (HOP-92) was > 100 µM (inactive) and the GI50 (SF-539) was > 100 µM (inactive). For the same molecule, the GI50 (U-251) was > 100 µM (inactive).

In the case of `O=C(Nc1cccc([N+](=O)[O-])c1)C(=O)C(C(=O)c1ccccc1-c1ccccc1)C1OC(=O)c2ccccc21` (centres undefined), the GI50 (SNB-75) is reported as 22.9 µM (inactive), the GI50 (DMS-114) is reported as 14.5 µM (inactive) and the GI50 (HL-60) is reported as 16.2 µM (inactive). For the same molecule, the GI50 (SK-MEL-5) was 16.2 µM (inactive), the GI50 (KM-20L2) was 23.3 µM (inactive) and the GI50 (RPMI-8226) was 13.4 µM (inactive). For the same molecule, the GI50 (OVCAR-3) was 15.4 µM (inactive), the GI50 (COLO 205) was 20 µM (inactive) and the GI50 (HCC 2998) was 16.2 µM (inactive). For the same molecule, the GI50 (NCI-H460) was 25.9 µM (inactive), the GI50 (HT-29) was 38.8 µM (inactive) and the GI50 (UACC-62) was 19.5 µM (inactive). The GI50 (UO-31) was 20.2 µM (inactive), the GI50 (SK-OV-3) was 32.5 µM (inactive) and the GI50 (NCI-H23) was 14.7 µM (inactive). For the same molecule, the GI50 (K562) was 28 µM (inactive), the GI50 (RXF 393) was 13.3 µM (inactive) and the GI50 (TK-10) was 30.4 µM (inactive). The GI50 (SK-MEL-2) was 17.9 µM (inactive), the GI50 (SK-MEL-28) was 23.5 µM (inactive) and the GI50 (EKVX) was 25.6 µM (inactive). The GI50 (OVCAR-5) was 22 µM (inactive), the GI50 (HCT-116) was 12.8 µM (inactive) and the GI50 (ACHN) was 35.6 µM (inactive). For the same molecule, the GI50 (HOP-62) was 16.6 µM (inactive), the GI50 (DLD-1) was 19.9 µM (inactive) and the GI50 (A498) was 23.2 µM (inactive). For the same molecule, the GI50 (XF498) was 20.4 µM (inactive), the GI50 (CCRF-CEM) was 22.9 µM (inactive) and the GI50 (A549) was 26.9 µM (inactive). The GI50 (SW-620) was 27.2 µM (inactive), the GI50 (LOX IMVI) was 17 µM (inactive) and the GI50 (SNB-78) was 23.2 µM (inactive). For the same molecule, the GI50 (KM12) was 20 µM (inactive), the GI50 (OVCAR-8) was 22.3 µM (inactive) and the GI50 (M19-MEL) was 15.9 µM (inactive). For the same molecule, the GI50 (NCI-H226) was 5.96 µM (inactive), the GI50 (IGROV-1) was 30.8 µM (inactive) and the GI50 (MOLT-4) was 13.2 µM (inactive). For the same molecule, the GI50 (Malme-3M) was 13.6 µM (inactive), the GI50 (LXFL 529) was 13.1 µM (inactive) and the GI50 (SF-268) was 22.2 µM (inactive). For the same molecule, the GI50 (NCI-H522) was 11.4 µM (inactive), the GI50 (M14) was 17.8 µM (inactive) and the GI50 (786-0) was 18.7 µM (inactive). For the same molecule, the GI50 (UACC-257) was 20.1 µM (inactive), the GI50 (SF-295) was 22 µM (inactive) and the GI50 (HOP-92) was 13.4 µM (inactive). The GI50 (RXF 631) was 22 µM (inactive), the GI50 (SF-539) was 14.5 µM (inactive) and the GI50 (U-251) was 13.4 µM (inactive).
